Patent US10555965B2, “Environment-responsive hyaluronic acid nanoparticles” (Industry-University Cooperation Foundation Hanyang …, priority 2015, dated 2020)

Key:
HepG2 tumor = experiment: In vivo therapeutic effect (liver cancer growth inhibition); parameters: species or system mice; details: intravenous, 5 times for a week, monitored 17 days
Method: To evaluate a therapeutic effect of the HA-PBA nanoparticles, the tumor-bearing mouse model of Experimental Example 7 was prepared.
The HA-PBA nanoparticles (20 mg kg), paclitaxel (10 mg/kg), and PBS were intravenously injected into the caudal veins of the tumor-bearing mice (injected 5 times for a week). Changes in tumor volume were monitored for 2 weeks (n=7). Tumor tissues were extracted from the mice, and embedded into an optimal cutting temperature (OCT) compound. The tumor tissues were cut into sections (12 μm thick), and stained with hematoxylin and eosin (H&E) and a DeadEnd™ colorimetric TUNEL system (Promega, USA).
When the tumor volumes of the mice reached approximately 90 mm3, the HA-PBA nanoparticles, paclitaxel, and PBS were injected into the mice.

HepG2 cells = experiment: Apoptosis/necrosis by flow cytometry (Annexin-V-FITC/PI); format: cell-based; details: 12 hours treatment, nanoparticles 1 mg/mL or 2DG 0.25 mg/mL
Method: The 2-deoxy-D-glucose was used as a glycolytic inhibitor. The ATP content was measured using an ATP Colorimetric/Fluorometric Assay Kit (Biovision). Lactate secretion was quantified using an EnzyChromTM L-Lactate Assay Kit (Bioassay). In cell fate, an effect of the HA-PBA nanoparticles on the inhibition of glycolysis was examined using a flow cytometer (BD FACS Caliber). Briefly, the HepG2 cells were treated with the HA-PBA nanoparticles or 2DG for 12 hours. An Annexin-V-FITC antibody and propidium iodide (PI) were used as markers for apoptotic and necrotic cell death. The HepG2 cells were seeded in a 24-well tissue culture plate at a density of 1×10^4 cells/well, and incubated at 37° C. for 24 hours under 5% CO2 conditions. The cells were washed with PBS, and treated for 8 hours with a low or high glucose medium including the HA-PBA nanoparticles (1 mg/mL) having a degree of […]. Also, prior to treatment with the HA-PBA nanoparticles, the cells were pretreated with a hyaluronate (2.5 mg/mL) dissolved in a low glucose medium. The medium was replaced with a fresh medium daily. At a predetermined point of time, the cells were treated with EZ-Cytox for 2 hours, and the optical density at 450 nm was measured using a UV/VIS spectrophotometer. The growth rate of the cells was calculated from a change in the number of the cells in 3 days of incubation. […]

Structure (SMILES)	weight loss (HepG2 tumor)	tumor growth rate compared to PBS-treated group (HepG2 tumor; nanoparticles 20 mg kg, paclitaxel 10 mg/kg)	in-late apoptotic HepG2 cells (HepG2 cells; control 5.77%) [%]	apoptotic HepG2 cells (HepG2 cells; control 6.76%) [%]
CC(=O)O[C@H]1C(=O)[C@@]2(C)[C@H]([C@H](OC(=O)c3ccccc3)[C@]3(O)C[C@H](OC(=O)[C@H](O)[C@@H](NC(=O)c4ccccc4)c4ccccc4)C(C)=C1C3(C)C)[C@]1(OC(C)=O)CO[C@@H]1C[C@@H]2O [paclitaxel]	No weight loss	inhibited tumor growth rate	–	–
O=CC[C@@H](O)[C@H](O)[C@H](O)CO [2DG, 2-deoxy-D-glucose]	–	–	4.65	18.81
